Among the test systems are RXF 393 renal; UACC-257 melanoma; HCC-2998 colon; NCI-H460 lung; NCI-H23 lung; DMS 114 small cell lung; M19-MEL melanoma; NCI-H226 lung; HS 578T breast; NCI/ADR-RES ovarian.
Test in all cases: NCI anticancer screen, dose series, 48 h

Where “and” joins values, the source holds several entries; their conditions need not be identical. Equal values may be shown once.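 Dose response: 5 concentrations. Exposure: 48 h. Format: 96-well plates. Endpoint: linear interpolation; highest concentration if not reached. GI50 = concentration required for 50% inhibition of growth. Definition used: TGI = concentration required for complete inhibition of growth.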 Some results are limits rather than exact numbers.

As to `CC1=CC2CC(C)C1(C)CCc1ccoc12` (stereo not drawn), the TGI in the assay on RXF 393 renal, with UACC-257 melanoma, in the assay on HCC-2998 colon, with NCI-H460 lung, with NCI-H23 lung and with DMS 114 small cell lung was more than 100 µM in each case. In the assay with M19-MEL melanoma, the TGI is more than 100 µM.
For `Cc1cc2c(cc1Br)C1(C)CCC(C)C1(C)O2` (stereo not drawn), the TGI in the assay with RXF 393 renal was 32.1 µM; in the assay with UACC-257 melanoma it was 98.8 µM; with HCC-2998 colon it was more than 100 µM; with NCI-H226 lung it was 50 µM; with NCI-H460 lung, 53.7 µM; with NCI-H23 lung, 67.4 µM. Moreover, the TGI in the assay on DMS 114 small cell lung was determined as 52 µM; in the assay with M19-MEL melanoma, 70.1 µM.
Take `COc1cc2c(c(OC)c1OC)-c1ccc(SC)c(=O)cc1C(CC(=O)Oc1cccc(C#N)c1)C2` (stereo not drawn): the TGI was more than 100 µM in the assay on UACC-257 melanoma; 1.59 µM in the assay with HCC-2998 colon; 1.02 µM in the assay with NCI-H226 lung; 19.7 µM in the assay on NCI-H460 lung; more than 34.6 µM in the assay with NCI-H23 lung; more than 100 µM in the assay with M19-MEL melanoma.
For `CC(=O)O[C@H]1CC[C@@]2(C)C(=CC[C@@H]3C2CC[C@]2(C)Nc4[nH]ncc4CC32)C1` (stereo partly drawn), the TGI was more than 100 µM in the assay with RXF 393 renal; 30.8 µM in the assay on UACC-257 melanoma; more than 100 µM in the assay with HCC-2998 colon; more than 100 µM in the assay with NCI-H226 lung; 33.7 µM in the assay with NCI-H460 lung; more than 100 µM with NCI-H23 lung. In addition, the figures for the TGI in the assay with DMS 114 small cell lung and in the assay on M19-MEL melanoma were 34.2 µM and 60.1 µM, respectively.
Take `CCC[CH2][Sn]1([CH2]CCC)[O]C(=O)CN=Cc2ccccc2[O]1`: the GI50 with RXF 393 renal is 0.144 µM; in the assay with UACC-257 melanoma, 0.164 µM; in the assay on HCC-2998 colon it was 0.525 µM; with NCI-H460 lung, 1.28 µM; in the assay on NCI-H23 lung, 0.136 µM; in the assay with DMS 114 small cell lung, 0.134 µM. The GI50 with M19-MEL melanoma was 0.249 µM. In addition, the TGI with RXF 393 renal was determined as 0.306 µM; in the assay with UACC-257 melanoma it was 0.419 µM; with HCC-2998 colon, 1.81 µM; with NCI-H460 lung it was 2.6 µM; in the assay with NCI-H23 lung, 0.333 µM; with DMS 114 small cell lung, 0.295 µM. In the assay with M19-MEL melanoma, the TGI was found to be 1.15 µM.
On to `CN(CCN(C)C(=O)CCOS(C)(=O)=O)C(=O)CCOS(C)(=O)=O`, for which the TGI with UACC-257 melanoma, with HCC-2998 colon, in the assay on NCI-H226 lung, in the assay with NCI-H460 lung, in the assay on NCI-H23 lung and in the assay on DMS 114 small cell lung was more than 100 µM throughout.
As for `Cc1c(O)c(=O)ccn1CCO`, the TGI in the assay with RXF 393 renal, with UACC-257 melanoma, with NCI-H226 lung, in the assay with NCI-H460 lung, in the assay with DMS 114 small cell lung and in the assay on M19-MEL melanoma was more than 100 µM in each case.
In the case of `Clc1cc(Cl)cc(Nc2nc3ccccc3nc2-c2cccs2)c1`, the TGI in the assay with RXF 393 renal was 39.9 µM; with UACC-257 melanoma it was 60.4 µM; in the assay on HCC-2998 colon it was more than 100 µM; in the assay on NCI-H226 lung, more than 100 µM; with NCI-H460 lung, 41.6 µM; in the assay with NCI-H23 lung it was more than 100 µM. The TGI in the assay with M19-MEL melanoma turned out to be 88.2 µM.
In the case of `C=CCN(CC=C)CC(C(C)=O)C(c1ccccc1)c1c(O)c2ccccc2oc1=O` (stereo not drawn), the TGI in the assay on RXF 393 renal, in the assay with UACC-257 melanoma, with HCC-2998 colon, in the assay with NCI-H226 lung, in the assay with NCI-H23 lung and with DMS 114 small cell lung was more than 100 µM throughout. Also, in the assay on M19-MEL melanoma, the TGI was more than 100 µM.
For `C[Si]12OCCCN(CCO1)CCO2`, the TGI in the assay with RXF 393 renal, in the assay on UACC-257 melanoma, in the assay with HCC-2998 colon, in the assay with NCI-H460 lung, in the assay on NCI-H23 lung and in the assay on DMS 114 small cell lung was more than 100 µM in each case. This molecule yielded a TGI in the assay with M19-MEL melanoma of more than 100 µM.
Regarding `COc1ccccc1NC(=O)C1=C(C)NC(C)=C(C(=O)Nc2ccccc2OC)C1c1cccc2c1OCO2`, the TGI with UACC-257 melanoma, in the assay on HCC-2998 colon, with NCI-H226 lung, in the assay with NCI-H460 lung, in the assay with NCI-H23 lung and in the assay on DMS 114 small cell lung was more than 100 µM in each case. Further, in the assay on M19-MEL melanoma, the TGI is more than 100 µM.
As for `Cc1cc(NC(=O)NC(=O)c2ccccc2NC(=O)CN)ccc1Oc1ncc(Br)cn1`, the GI50 in the assay with RXF 393 renal was less than 0.01 µM; in the assay with HCC-2998 colon, 0.354 µM; in the assay with NCI-H226 lung, 0.238 µM; in the assay with NCI-H460 lung, 0.405 µM; in the assay with NCI-H23 lung it was 0.331 µM. In addition, the TGI is 4.69 µM in the assay with HS 578T breast; 38.4 µM with UACC-257 melanoma; 18 µM and 2.68 µM in the assay on HCC-2998 colon; 12.7 µM in the assay with NCI/ADR-RES ovarian; 44.5 µM and 11.8 µM in the assay with NCI-H460 lung; 15.5 µM and 13.8 µM in the assay with NCI-H23 lung. In the assay on DMS 114 small cell lung, this molecule showed a TGI of 75 µM.
Regarding `CNC(=O)OCc1[nH]ccc2c(C)c3nc4ccc(OC)cc4c3cc12`, the TGI is 8.72 µM in the assay with RXF 393 renal; more than 100 µM in the assay on UACC-257 melanoma; more than 53.5 µM in the assay on HCC-2998 colon; 18.7 µM with NCI-H226 lung; more than 22.2 µM with NCI-H23 lung; more than 100 µM in the assay with M19-MEL melanoma.
For the molecule `COc1ccccc1NC(=O)CC(=O)NNCC(=O)Nc1nnc(-c2ccccc2)o1`, the TGI in the assay on UACC-257 melanoma, with HCC-2998 colon, in the assay on NCI-H226 lung, with NCI-H23 lung, in the assay on DMS 114 small cell lung and with M19-MEL melanoma was more than 100 µM throughout.
As for `CCOC(=O)c1cnc2cc3cccccc3n2c1=O`, the TGI in the assay with RXF 393 renal, with UACC-257 melanoma, in the assay on HCC-2998 colon, in the assay with NCI-H226 lung, in the assay with NCI-H460 lung and in the assay with NCI-H23 lung was more than 100 µM in each case. Besides, the TGI in the assay on DMS 114 small cell lung was more than 100 µM.
For the molecule `O=C(O)CCCNS(=O)(=O)c1ccc2ccccc2c1`, the TGI in the assay on RXF 393 renal, in the assay on UACC-257 melanoma, in the assay on HCC-2998 colon, in the assay on NCI-H226 lung, with NCI-H460 lung and with NCI-H23 lung was more than 100 µM in each case. In addition, the TGI with M19-MEL melanoma is more than 100 µM.
`COc1ccc2c(c1)CCCC1C3=NCCC3(C)CSC21` (stereo not drawn): the TGI in the assay on RXF 393 renal, in the assay on NCI-H460 lung, with NCI-H23 lung, with DMS 114 small cell lung and in the assay on M19-MEL melanoma was more than 100 µM throughout.
Regarding `CC1CC2(CCC1OCc1ccccc1)OCCO2` (stereo not drawn), the TGI in the assay on RXF 393 renal, in the assay with UACC-257 melanoma, in the assay with HCC-2998 colon, in the assay on NCI-H460 lung, in the assay on NCI-H23 lung and in the assay with DMS 114 small cell lung was more than 100 µM in each case. For the same molecule, the TGI with M19-MEL melanoma was more than 100 µM.

(Values after PubChem BioAssay (NCI).)
